Source: PMC8910697, “Development of VPC-70619, a Small-Molecule N-Myc Inhibitor as a Potential Therapy for Neuroendocrine Prostate Cancer” (International Journal of Molecular Sciences, 2022)

What was measured:
Type in all cases: cell-based
[1] = system: N-Myc-Max transcription activity (LNCaP-NMYC cells); assay: Myc transcription assay (Cignal Myc reporter, luciferase) in LNCaP-NMYC cells; settings: LNCaP-NMYC; for transcription inhibition activity (in words): screened at 10 µM and 5 µM
Description: To determine the optimal substitutions on the free phenyl ring, we used the active scaffold for a second substructure search against the ZINC15 database to identify a set of 181 analogues for further validation (VPC-70617 to -70799, presented in Supplementary Table S1). Compounds were tested for their inhibition of a N-Myc-Max luciferase transcription activity assay at 5 and 10 µM Figure 2a. Herein, we inspected all the proposed substitutions on the scaffold to discern the features required to construct a possible SAR model for inhibitors targeting N-Myc-Max/DBD complex (Figure 2b).
LNCaP-NMYC cells were transfected using TransIT-2020 transfection reagents per the manufacturer’s protocol. Cells were plated at a density of 10,000 cells per well of a 96-well plate. Following 24 h treatment with 5 µM or 10 µM of the compounds, the Myc reporter activity was measured using the Cignal Myc Reporter Assay Kit from Qiagen (#336841) (Hilden, Germany) per the manufacturer’s instructions.

IMR32 cells = assay: Cell viability (CellTiter-Glo), IMR32; settings: Homo sapiens, IMR-32
Description: (§1) The 54 compounds were tested at 10 µM for their inhibition of the IMR32 human neuroblastoma cell line, in which the MYCN gene is amplified and actively expressed (Table 3). HO15.19 cell line (Myc-negative) was used in parallel as a compound specificity control.
(§2) Viability of N-Myc positive (IMR32and NCI-H660) and negative (HO15.19) cells were determined using the CellTiter-Glo Luminescent Cell Viability Assay (Promega cat. G7570) (Madison, WI, USA). Cells were seeded into a 96-well white plate with a clear bottom: 10,000 cells per well for the IMR32 cells cultured in EMEM supplemented with 10% FBS, 2000 HO15.19 cells per well in Eagle’s minimum essential medium (EMEM) supplemented with 10% FBS, and 2000 cells per well for the NCI-H660 neuroendocrine cells cultured in RPMI supplemented 5% FBS, 1% Insulin-Transferrin-Selenium (Thermo Fisher, 41400-045), 10nM b-estradiol (Sigma, E8875), 10nM hydrocortisone (Sigma H0888) and 1% matrigel. Following 24 h incubation, the cells were treated with serial dilutions of the derivatives along with the respective parental compound starting at 25 μM for 72 h. Cell Titer Glo was added to each well at a ratio of 1:1 and incubated on a shaker at RT for 2 min. Luminescence and IC50 was measured with the TECAN InfiniteM200 plate reader (Männedorf, Switzerland).

HO15.19 cells = assay: Cell viability counter-screen (CellTiter-Glo), Myc-negative HO15.19; settings: Rattus norvegicus, HO15.19, 10 µM; Myc-negative specificity control
Description: as §1, §2

SMILES	transcription inhibition activity (in words) [1]	inhibition at 10 µM (IMR32 cells)	inhibition at 10 µM (HO15.19 cells)	transcription inhibition activity at 5 µM (in words) [1]
N#Cc1ccc(NNC(=O)c2ccc(Cl)c(F)c2)c(C(F)(F)F)c1 [compound 70621]	good inhibition at both concentrations tested	98.8%	68.6%	
N#Cc1ccc(NNC(=O)c2ccc(Cl)c(Br)c2)c(C(F)(F)F)c1 [compound 70622]	good inhibition at both concentrations tested	99.4%	36.4%	
N#Cc1ccc(NNC(=O)c2ccc(Cl)cc2O)c(C(F)(F)F)c1 [compound 70633]	activity was maintained	93.6%	77%	
N#Cc1ccc(NNC(=O)c2ccc(Br)c(Cl)c2)c(C(F)(F)F)c1 [compound 70635]	strong increase in inhibition activity	7.5%	11.8%	
N#Cc1ccc(NNC(=O)c2cc(F)cc(F)c2)c(C(F)(F)F)c1 [compound 70639]	better inhibition activity	60.2%	66.1%	
N#Cc1ccc(NNC(=O)c2cc(Cl)ccc2O)c(C(F)(F)F)c1 [compound 70640]	better inhibition activity	93.5%	76.7%	
N#Cc1ccc(NNC(=O)c2cc(F)cc(Cl)c2)c(C(F)(F)F)c1 [compound 70644]	better inhibition activity	88.3%	69.5%	
N#Cc1ccc(NNC(=O)c2ccc(F)c(C(F)(F)F)c2)c(C(F)(F)F)c1 [compound 70647]	strong increase in inhibition activity	88.6%	70.9%	
N#Cc1ccc(NNC(=O)c2cc(Cl)cc(Br)c2)c(C(F)(F)F)c1 [compound 70650]	very strong transcription inhibition	92.1%	80.2%	
N#Cc1ccc(NNC(=O)c2cc(Cl)cc(Cl)c2)c(C(F)(F)F)c1 [compound 70652]	very strong transcription inhibition	92.5%	80.7%	
N#Cc1ccc(NNC(=O)c2ccc(SC(F)(F)F)cc2)c(C(F)(F)F)c1 [compound 70658]	active	46.9%	57.2%	
N#Cc1ccc(NNC(=O)c2cc(F)c(F)cc2Cl)c(C(F)(F)F)c1 [compound 70659]	strong increase in inhibition activity	31%	31.5%	
N#Cc1ccc(NNC(=O)c2ccc(Cl)c(C#N)c2)c(C(F)(F)F)c1 [compound 70662]		11%	9.9%	recovered the activity
N#Cc1ccc(NNC(=O)c2ccc([N+](=O)[O-])cc2)c(C(F)(F)F)c1 [compound 70663]	maintained good transcription inhibition activity	28.9%	7.9%	
N#Cc1cccc(C(=O)NNc2ccc(C#N)cc2C(F)(F)F)c1 [compound 70672]		18%	8.1%	
Cc1cc(Cl)cc(C(=O)NNc2ccc(C#N)cc2C(F)(F)F)c1 [compound 70675]	better inhibition activity	65.4%	65.9%	
Cc1cc(C(=O)NNc2ccc(C#N)cc2C(F)(F)F)cc(C)c1F [compound 70679]	strong increase in inhibition activity	1.1%	7.3%	

SMILES	transcription inhibition activity (in words) [1]	inhibition at 10 µM (IMR32 cells)	inhibition at 10 µM (HO15.19 cells)	transcription inhibition activity at 5 µM (in words) [1]
N#Cc1ccc(NNC(=O)c2ccc(F)c(Cl)c2)c(C(F)(F)F)c1 [compound 70680]	strong increase in inhibition activity	52.9%	64%	
N#Cc1ccc(NNC(=O)c2ccc(SC(F)F)cc2)c(C(F)(F)F)c1 [compound 70682]		11%	22.9%	
COc1cc(C(=O)NNc2ccc(C#N)cc2C(F)(F)F)ccc1Cl [compound 70685]		24.7%	15.2%	recovered the activity
N#Cc1ccc(NNC(=O)c2cc(F)c(F)c(F)c2)c(C(F)(F)F)c1 [compound 70686]	strong increase in inhibition activity	82.2%	75.8%	
N#Cc1ccc(NNC(=O)c2ccc(C(F)(F)F)c(F)c2)c(C(F)(F)F)c1 [compound 70693]	strong increase in inhibition activity	22.4%	0.2%	
N#Cc1ccc(NNC(=O)c2cc(Cl)c(N)c(Cl)c2)c(C(F)(F)F)c1 [compound 70695]	better inhibition activity	77.1%	41.2%	
N#Cc1ccc(NNC(=O)c2ccc(F)c(C#N)c2)c(C(F)(F)F)c1 [compound 70696]	strong increase in inhibition activity	15.1%	13.2%	
N#Cc1ccc(Cl)c(C(=O)NNc2ccc(C#N)cc2C(F)(F)F)c1 [compound 70698]	high transcription inhibition activity	35.4%	27.3%	
COc1cc(Cl)cc(C(=O)NNc2ccc(C#N)cc2C(F)(F)F)c1 [compound 70700]	better inhibition activity	60.5%	42%	
N#Cc1ccc(NNC(=O)c2cccc(I)c2)c(C(F)(F)F)c1 [compound 70703]	better inhibition activity	18.5%	13.5%	
N#Cc1ccc(NNC(=O)c2ccc(C(F)(F)F)cc2Cl)c(C(F)(F)F)c1 [compound 70704]	strong increase in inhibition activity	10.6%	13.6%	
N#Cc1ccc(NNC(=O)c2ccc(C(F)(F)F)c(Cl)c2)c(C(F)(F)F)c1 [compound 70705]	good inhibition at both concentrations tested	60.7%	61.8%	
N#Cc1ccc(NNC(=O)c2ccc(Cl)cc2C(F)(F)F)c(C(F)(F)F)c1 [compound 70706]	activity was maintained	54.3%	65.6%	
N#Cc1ccc(NNC(=O)c2ccc(F)c(F)c2F)c(C(F)(F)F)c1 [compound 70715]	strong increase in inhibition activity	14.4%	39.9%	
N#Cc1ccc(NNC(=O)c2c(O)cc(Cl)cc2Cl)c(C(F)(F)F)c1 [compound 70719]	recovered the inhibition activity	95%	76.5%	
N#Cc1ccc(NNC(=O)c2cc(Cl)cc(C(F)(F)F)c2)c(C(F)(F)F)c1 [compound 70722]	very strong transcription inhibition	94.7%	79.3%	
